Reference: patent US20170008888A1 (KYORIN PHARMACEUTICAL CO., LTD., priority 2014, published 2017)
Marks after values point to notes of the source that are not given here.

Tests used:
MV-4-11 cells = assay: MV-4-11 proliferation EC50 assay (CellTiter-Glo); assay type: cell-based; settings: Homo sapiens, MV4-11, 48 h, read-out: MV-4-11 proliferation EC50, ave. ± S.D.
Procedure: Human biphenotypic B myelomonocytic leukemia MV-4-11 cells (ATCC, Manassas, Va.) were treated with test compounds at 2e5 cells/ml in IMDM medium containing 10% (v/v) FBS (Life Technologies, Grand Island, N.Y.) and 1×Pen/Strep Amphotericin B (Lonza, Allendale, N.J.). Compounds were tested at 25 μM down by ⅓ in a 9 point serial dilution series. Cells were incubated for 48 h at 37° C. in a humidified atmosphere at 5% CO2. MV-4-11 cell proliferation was then indirectly determined via cellular ATP content using the CellTiter-Glo® Luminescent Cell Viability Assay (Promega, Madison, Wis.) as per the manufacturer's instructions. Briefly, experimental plates were equilibrated at room temperature for 30 minutes. An equal volume of CellTiter-Glo® reagent was added to each well and incubated for 15 minutes at room temperature. Luminescent signal was read using the Wallac 1420 Victor^2 multilabel microplate reader (Perkin Elmer, Waltham, Mass.). EC50 values were determined using GraphPad Prism software v5.04.

[1] = test system: Imiquimod-induced psoriasis mouse model; assay: Imiquimod (IMQ)-induced acute model of psoriasis in mouse: skin thickness, erythema, scaling; assay type: in vivo, mouse (Balb/c)
Procedure: Material and methods for the IMQ study were adapted from van der Fits et al. J Immunol., 2009, 182: 5836-5845. Eight week old male Balb/c mice (Harlan) received a daily topical dose of 62.5 mg 5% IMQ cream (Aldara™, Medicis) equivalent to 3.125 mg IMQ, on the shaved back (approximately 2×3.5 cm patch) and dorsal surface of the right ear for 6 consecutive days. Sham control mice were treated similarly with control cream (Hydrous Emulsified Base, HEB, Cream, Fagron). Treatments were administered by group as indicated in Table 1 below prior to daily application of IMQ (QD and morning dose of BID regimens), n=10 for all groups. […] Body weights and scoring of induced clinical disease were performed after dosing (Days 1-7) but prior to IMQ application (Days 1-6) on Days 1 (baseline), 3, 4, 6, 8. Mice were sacrificed on Day 8 and treated back skin tissue collected and divided for fixation for histopathology (a 12 mm punch in mid-back) the remainder flash frozen; right (IMQ) and left (control) ears, spleen (after wet weight) and lung were also individually collected and flash frozen, and stored at −70° C. for subsequent biochemical analyses. Statistics were performed using one-way ANOVA with Dunnett's post-hoc test comparing treated groups to the vehicle group, using InStat software (GraphPad, La Jolla, Calif.).
The severity of clinical disease was assessed by
1) skin thickness dial gauge micrometer measurements (duplicate) of the ears and the dorsal skin at the midline of the back (equal to double true measure of dorsal skin thickness)
2) erythema and scaling, independently scored on a scale from 0-4: 0=none, 1=slight, 2=moderate, 3=marked, 4=very marked with intermediate increments of 0.5 allowed.
Clinical disease assessments included erythema, scaling, skin thickness and cumulative disease severity scores and the change in skin thickness of the ears and dorsal back skin over time compared to baseline measurements (Tables 19 and 20). Body weights of the mice were measured at baseline and at end of study, and there were no significant changes in weight in any treatment group during the study (data not shown).

[2] = test system: DNFB-induced ear inflammation mouse model; assay: DNFB-induced ear inflammation (contact hypersensitivity) mouse model: ear weight; assay type: in vivo, mouse (Balb/c); settings: 3 mg/kg PO, QD on Day 5 (elicitation)
Procedure: (§1) In vivo T-cell mediated immune response was examined in a mouse model of CHS using the hapten dinitrofluorobenzene (DNFB) as the induction agent. Method for sensitization and elicitation of DNFB-induced CHS was modified from Xu et al. J. Exp. Med. 1996. 183:1001-1012. On Days 0 and 1 (sensitization), 20 μL of 0.5% v/v DNFB in acetone:olive oil (4:1) was applied to each hindpaw of 8 week old male mice (Balb/c, Charles River Laboratories; 10 mice per group unless otherwise noted). On Day 5 (elicitation) 10 μL of 0.2% v/v DNFB in acetone: olive oil (4:1) was applied to the dorsal surface of the right ear of each animal; 10 μL of acetone: olive oil (4:1) was applied to the dorsal surface of the left ear as control. Treatments were administered by group as indicated in the table below; on days when DNFB was used, the QD and the morning dose of BID as appropriate were administered 30 minutes-1 hr. prior to DNFB application. […] Approximately 24 hours after elicitation (Day 6), a 7 mm tissue punch from the central portion of both ears was collected and wet weights measured. The primary functional assessment was the difference in wet weights of the right (DNFB) vs. left (vehicle) ears compared to the vehicle treatment (Vehicle1-S) as an indicator of inflammation (Table 17). Ear tissue punches were flash frozen, stored at −70° C. and analyzed for cytokines (see below). Body weights of the mice were measured at baseline and at end of study, and there were no significant changes in weight in any treatment group during the study (data not shown).

[3] = test system: DNFB-induced ear inflammation mouse model; assay: DNFB-induced ear inflammation mouse model: cytokine concentrations in ear tissue; assay type: in vivo, mouse (Balb/c); settings: Dex 3 mg/kg PO, regimen E
Procedure: as §1, with “Method for sensitization and elicitation of DNFB-induced CHS was modified from Xu et al. J. Exp. Med. 1996. 183:1001-1012.” left out, “below).” for “below). Body weights of the mice were measured at baseline and at end of study, and there were no significant changes in weight in any treatment group during the study (data not shown).”
Cytokine concentrations after DNFB induction and treatment were analyzed in the weighed and flash frozen tissues of the right (DNFB) and left (control) 7 mm ear punches. The ear tissues were stored at −70° C. until prepared for analysis as follows. Left or right ear tissues from the same treatment group were pooled and crushed with mortar and pestle under liquid nitrogen. Tissue representing 7-8 ear punches by weight was homogenized in Buffer A (50 mM HEPES pH 7.4, 100 mM NaCl) containing 1 tablet EDTA-free Protease Inhibitor (Thermo Fisher Scientific, Rockford, Ill.) per 10 mL, 1× Phosphatase Inhibitor Cocktail II (AG Scientific, San Diego, Calif.), and 1 mM PMSF (Sigma, St. Louis, Mo.). Homogenization was performed in Lysing Matrix D tubes (MP Biomedicals, Solon, Ohio), using the FastPrep-24 instrument (MP Biomedicals) at a speed setting of 6 for 4 cycles of 30 seconds, with cooling on ice in between cycles. The tubes were then centrifuged at 1,000×g for 10 min at 4° C. Supernatant was collected and briefly sonicated using the Microson probe sonicator at setting 3 (Misonix, Farmingdale, N.Y.) before centrifuging again at 10,000×g for 10 min at 4° C. The supernatant was ultracentrifuged at 100,000×g for 1 h at 4° C. in the Optima Max-E (Beckman Coulter, Indianapolis, Ind.) to separate soluble and membrane protein fractions. The soluble (supernatant) fraction was collected and protein concentrations determined using the Dc protein kit (Bio-Rad, Hercules, Calif.). Soluble ear proteins were analyzed in triplicate for cytokine response at a final protein concentration of 4 mg/ml using the Bio-Plex Pro Mouse Cytokine 23-Plex panel (Bio-Rad) as per manufacturer's protocols. Magnetic beads were read on the Bio-Plex MAGPIX multiplex reader instrument using the accompanying xPONENT 4.2 acquisition software (Bio-Rad Laboratories, Hercules, Calif.). Data were analyzed via the Bio-Plex Manager software v6.1 (Bio-Rad Laboratories). Response was calculated as a percentage of the cytokine concentrations measured in the right (DNFB) ears of vehicle 1 dosed (S regimen, i.e. dosed Day 0-5) mice (Table 18).

[4] = Day 1 (baseline), Dexamethasone 3 mg/kg PO
[5] = Day 3, Dexamethasone 3 mg/kg PO
[6] = Day 4, Dexamethasone 3 mg/kg PO
[7] = Day 6, Dexamethasone 3 mg/kg PO
[8] = Day 8, Dexamethasone 3 mg/kg PO

`CN1C(=O)c2ccccc2N(C)c2nc(Nc3ccc(N4CCC(O)CC4)cn3)ncc21` [Compound IV-5 in WO 2010/080712] showed an EC50 (MV-4-11 cells) of 1120 nM.

`C[C@@H]1C[C@H]2[C@@H]3CCC4=CC(=O)C=C[C@]4(C)[C@@]3(F)[C@@H](O)C[C@]2(C)[C@@]1(O)C(=O)CO` [Dexamethasone, reference compound] was tested, and the “Clinical Score Erythema (0-4), AVG Score” value [1, 4] was 0, the “Clinical Score Scaling (0-4), AVG Score” value [1, 4] was 0 and the “% Mean DORSAL BACK THICKNESS versus day 1, AVG” value [1, 5] was 3.08%. For the same compound, the “% Mean LEFT EAR THICKNESS [Control] versus day 1, AVG” value (from here on “% Mean LEFT EAR THICKNESS”) [1, 5] was −9.64%, the “% Mean RIGHT EAR THICKNESS [IMQ] versus day 1, AVG” value (“% Mean RIGHT EAR THICKNESS” for short) [1, 5] was −5.32% and the “Clinical Score Erythema (0-4), AVG Score” value [1, 5] was 0.05. For the same compound, the “Clinical Score Scaling (0-4), AVG Score” value [1, 5] was 0, the “% Mean DORSAL BACK THICKNESS versus day 1, AVG” value [1, 6] was 13.71% and the “% Mean LEFT EAR THICKNESS” value [1, 6] was −10.38%. For the same compound, the “% Mean RIGHT EAR THICKNESS” value [1, 6] was −2.08%, the “Clinical Score Erythema (0-4), AVG Score” value [1, 6] was 0.65 and the “Clinical Score Scaling (0-4), AVG Score” value [1, 6] was 0.2. For the same compound, the “% Mean DORSAL BACK THICKNESS versus day 1, AVG” value [1, 7] was 13.04** %, the “% Mean LEFT EAR THICKNESS” value [1, 7] was −9.61% and the “% Mean RIGHT EAR THICKNESS” value [1, 7] was 10.54** %. The “Clinical Score Erythema (0-4), AVG Score” value [1, 7] was 0.45, the “Clinical Score Scaling (0-4), AVG Score” value [1, 7] was 0.5 and the “% Mean DORSAL BACK THICKNESS versus day 1, AVG” value [1, 8] was 14.32** %. The “% Mean LEFT EAR THICKNESS” value [1, 8] was −14.05%, the “% Mean RIGHT EAR THICKNESS” value [1, 8] was 10.40** % and the “Clinical Score Erythema (0-4), AVG Score” value [1, 8] was 0.45. The “Clinical Score Scaling (0-4), AVG Score” value [1, 8] was 0.35, the “% Reduction Weight Increase Vs. Vehicle 1 Weight Increase” value [2] was −60.0% and the “IFN-γ: Mean % Cytokine Concentration in DNFB Treated Right Ears versus Vehicle 1-Dosed (S) Mice” value [3] was 74%. For the same compound, the “IL-1α: Mean % Cytokine Concentration in DNFB Treated Right Ears versus Vehicle 1-Dosed (S) Mice” value [3] was 189%, the “IL-1β: Mean % Cytokine Concentration in DNFB Treated Right Ears versus Vehicle 1-Dosed (S) Mice” value [3] was 53% and the “IL-3: Mean % Cytokine Concentration in DNFB Treated Right Ears versus Vehicle 1-Dosed (S) Mice” value [3] was 76%. For the same compound, the “IL-5: Mean % Cytokine Concentration in DNFB Treated Right Ears versus Vehicle 1-Dosed (S) Mice” value [3] was 58%, the “IL-6: Mean % Cytokine Concentration in DNFB Treated Right Ears versus Vehicle 1-Dosed (S) Mice” value [3] was 36% and the “IL-12 (p40): Mean % Cytokine Concentration in DNFB Treated Right Ears versus Vehicle 1-Dosed (S) Mice” value [3] was 59%. The “IL-13: Mean % Cytokine Concentration in DNFB Treated Right Ears versus Vehicle 1-Dosed (S) Mice” value [3] was 81%, the “IL-17A: Mean % Cytokine Concentration in DNFB Treated Right Ears versus Vehicle 1-Dosed (S) Mice” value [3] was 63% and the “KC: Mean % Cytokine Concentration in DNFB Treated Right Ears versus Vehicle 1-Dosed (S) Mice” value [3] was 29%. The “MCP-1: Mean % Cytokine Concentration in DNFB Treated Right Ears versus Vehicle 1-Dosed (S) Mice” value [3] was 41%, the “MIP-1α: Mean % Cytokine Concentration in DNFB Treated Right Ears versus Vehicle 1-Dosed (S) Mice” value [3] was 53% and the “MIP-1β: Mean % Cytokine Concentration in DNFB Treated Right Ears versus Vehicle 1-Dosed (S) Mice” value [3] was 39%. The “RANTES: Mean % Cytokine Concentration in DNFB Treated Right Ears versus Vehicle 1-Dosed (S) Mice” value [3] was 42% and the “TNF-α: Mean % Cytokine Concentration in DNFB Treated Right Ears versus Vehicle 1-Dosed (S) Mice” value [3] was 74%.
